Tests used:
HSP70 [1] = experiment: In vitro HSP70 expression in heated MFH cells (immunoassay kit, Western Blot); format: cell-based; details: GGA 10^-5 M or 10^-4 M, 45° C. for 15 minutes, measured 6 hours after heating
Experimental: Cultivation of MFH cells was carried out by using a 100 mm Petri dish for culturing cells into which 10 ml of a medium had been charged, at 37° C. for 24 hours in an incubator into which 5% of carbon dioxide was added. As the medium, a medium comprising Dulbecco's modified Eagle's Medium that contains 10% fetal bovine serum and, as antibiotics, penicillin G potassium (100 U/ml) and streptomycin sulfate ([…]) was used.
After 6 hours from completion of the heating, a culture broth was removed from the Petri dish for culturing, the cells were washed twice with a physiological saline, a liquid to dissolve the cells attached to a HSP70 immunoassay kit was added to the cells with a predetermined amount to extract HSP70 from the cells. This was quantitated by the immunoassay kit. Also, the cells extract was subjected to electrophoresis, and an amount of HSP70 was qualitatively examined by Western Blot.

MFH cells = experiment: Tumor regression in MFH cancer-carried F344 rats under MCL hyperthermia (tumor tissue volume); format: in vivo, rat; details: (GGA+AMF) Group: hyperthermia using MCL and GGA in combination, magnetic field irradiation three times, among 8 individuals
Experimental: (§1) As experimental individuals, F344 rats (female, 7 to 8-weeks old) were used. MFH cells 1×10^7 cultured on Petri dish for cell-cultivation were dispersed in about 50 μl of a physiologically buffered saline, and then, the cells suspension was transplanted subcutaneously to a right leg of an experimental individual by using a scalp vein needle (25G×5/8″) (Terumo Corporation) to make a cancer-carried experimental individual. Nembutal (available from Dainippon Pharmaceutical Co., Ltd.) was used for anesthesia, and that diluted to five times (50 mg/kg body weight) was administered to abdominal cavity.
A slurry of the magnetite (particle diameter 10 nm; available from Toda Kogyo Corporation) was sufficiently washed with a distilled water to remove unnecessary ion components, subjected to ultrasonic wave treatment, to obtain colloidal magnetite. […]
Under anesthesia of experimental individuals, a longer diameter and a shorter diameter of the tumor tissue were measured by using calipers and calculated out from the following formula. […]

HSP70 [2] = experiment: HSP70 immunostain of tumor tissue after GGA administration; format: in vivo; details: F344 rat MFH tumor, GGA locally injected 12 hours after MCL, tumor cut out 2 hours after GGA, FIG. 1
Experimental: as §1
Under anesthesia of a rat, MCL with a concentration of 7.5 mg/ml and 3.3 mg of net weight magnetite was administered to the tumor tissue of the rat 10 days after transplantation of the MFH cells over 30 minutes by using a microsyringe pump (SP100i syringe pump, manufactured by WPI Co.), and thereafter, the rat was allowed to stand for 30 minutes. Magnetic field irradiation was carried out after 24 hours from injection of the MCL.

With geranylgeranyl acetone [GGA] the “expressed amount of the HSP70 after applying thermal stress” value (HSP70 [1]) was “increased depending on an amount of the GGA added”, the “individuals whose tumors were completely regressed and cured” value (MFH cells) was 8 individuals and the “induction of HSP70 in tumor tissue (HSP70 stain)” value (HSP70 [2]) was “induction of HSP70 was confirmed”.

From patent US20050013875A1, “Immunopotentiators in thermotherapy for cancer” (priority 2001, published 2005)
